Experiment [1] deals with T1, full-length RORγt (Homo sapiens, UniProt P51449).
T1 construct: HUT78 T-cells stably expressing full-length eGFP-RORγt; eGFP; expressed in transfected cells
T1 sequence (P51449 1-497 isoform P51449-2): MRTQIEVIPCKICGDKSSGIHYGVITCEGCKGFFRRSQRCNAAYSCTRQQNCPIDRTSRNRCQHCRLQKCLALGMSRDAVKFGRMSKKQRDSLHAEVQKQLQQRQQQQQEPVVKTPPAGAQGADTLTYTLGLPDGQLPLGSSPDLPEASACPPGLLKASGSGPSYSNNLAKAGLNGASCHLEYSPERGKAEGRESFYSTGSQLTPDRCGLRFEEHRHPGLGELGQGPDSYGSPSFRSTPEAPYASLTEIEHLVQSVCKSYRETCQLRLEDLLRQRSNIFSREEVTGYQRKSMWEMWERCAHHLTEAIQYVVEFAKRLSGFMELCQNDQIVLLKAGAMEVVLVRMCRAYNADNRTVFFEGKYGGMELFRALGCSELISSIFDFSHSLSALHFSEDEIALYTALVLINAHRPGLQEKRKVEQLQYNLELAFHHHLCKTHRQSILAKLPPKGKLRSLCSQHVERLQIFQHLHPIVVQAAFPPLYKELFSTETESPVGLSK
The experiment in a line: 4 x RORE luciferase reporter assay in HUT78 T-cells expressing full-length RORγt. The experiment is classed as cell-based. To be noted: CD3 antibody plus PMA, 48 h, read-out: IC50, 4 x RORE-driven luciferase activity. The source says:
HUT78 T-cells stably expressing full-length eGFP-RORγt or eGFP-empty vector were generated as described before ([45]). Cells were transfected with plasmids containing 4 × ROREs inserted into the pGL4.17 luciferase Firefly reporter plasmid (kindly provided by Dr. Juergen Reinhardt, Novartis). As a control construct, a mutated or a non-functional form of 4 × RORE (Mut-RORE), was transfected in eGFP-RORγt HUT78 T-cells. The plasmids contained the following sequences where the bold nucleotides represent the putative RORγt binding site or the mutated form of the RORE:
Two days after transfection, cells were incubated in X-vivo 15 medium containing 10% FCS and 700 μg/ml Geneticin (Corning) and stable clones expressing the 4 × ROREs or mutated-ROREs were obtained by limiting dilution. The luciferase expression of the individual cell clones was measured using Luciferase detection buffer (Perkin Elmer) and the RORC mRNA expression of the selected clones were quantified by qRT-PCR. […]
(In general: Reporter assays use an easily measured gene product as a stand-in for the process of interest.)

The subject of experiment [2] is CD4+ CD25 high gated PBMCs. The experiment in a line: FoxP3 expression in CD4+ CD25 high T-cells under Treg inducing conditions. To be noted: 96 h Treg inducing conditions, vs DMSO. The experiment is classed as cell-based, human. As for the experimental part: PBMCs from freshly drawn heparinized blood originating from healthy volunteers were isolated by density gradient centrifugation using Ficoll Paque (GE). PBMCs (1 × 10^5/well) were incubated for 96 h in the presence of DMSO or Cpd A (1 μM) together with anti-CD3 (3 ng/ml, clone OKT-3, BioXcell), anti-CD28 (30 ng/ml, clone CD28.2, BioLegend), TGF-β1 (0.2 ng/ml, Biolegend), IL-2 (15 ng/ml, Biolegend), anti-IFN-γ antibody (5 μg/ml, Biolegend), and anti-IL-4 (5 μg/ml, Biolegend). Cells were prepared for CD4/CD25 surface staining, followed by intracellular FoxP3 staining.
For FoxP3 detection within the CD4^+ CD25 high T-cells, surface staining was performed for 20 min with FITC labeled CD4 antibody and anti-CD25 BV421 antibody (BD Bioscience). After surface staining, the cells were washed, fixed and permeabilized according to the manufacturer's instructions (eBioscience) prior to intracellular staining with APC labeled FoxP3 antibody (eBioscience). Data were acquired on a LSR Fortessa (BD Bioscience) and analyzed using FlowJo software (Tree Star). FoxP3 expression was determined in gated CD4^+ CD25 high T-cells that were treated with DMSO or with Cpd A.

Experiment [3] concerns the target T2, RORγt-LBD (Homo sapiens, UniProt P51449).
T2 construct: luciferase reporter gene transcription is driven by the GAL4-RORγt-LBD fusion construct; expressed in transfected cells; host or cells: Jurkat cells stably carrying pGL4.35 (9 x GAL4 sites, luciferase)
T2 sequence (P51449 269-508 limits assumed): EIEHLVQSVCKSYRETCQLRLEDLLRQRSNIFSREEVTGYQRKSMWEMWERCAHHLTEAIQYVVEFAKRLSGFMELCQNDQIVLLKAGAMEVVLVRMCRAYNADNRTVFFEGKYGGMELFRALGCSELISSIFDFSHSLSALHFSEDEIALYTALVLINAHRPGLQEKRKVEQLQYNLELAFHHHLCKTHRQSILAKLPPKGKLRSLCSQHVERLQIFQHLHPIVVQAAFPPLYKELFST
The experiment in a line: RORγt-LBD/GAL4 transactivation reporter gene assay in Jurkat T-cells. The format is cell-based. The procedure:
Selectivity against other ROR family members was assessed in a GAL4 reporter gene assay as previously described ([44]). Briefly, Jurkat cells stably expressing the pGL4.35 plasmid (Promega) containing nine GAL4 binding sites inducing the transcription of the luciferase reporter gene were transiently transfected with the human RORα, RORβ or RORγt-LBD/GAL4-DBD constructs. After 24 h post-transfection, cells were incubated with Cpd A for an additional 24 h before luciferase activity was determined using an EnVision Multilabel Plate Reader (Perkin Elmer).

The test system of experiment [4] is STAT3 phosphorylation in Ba/F3 cells stably expressing the human IL-21 receptor. In words: IL-21-induced phospho-STAT3 by flow cytometry. The experiment is classed as cell-based. To be noted: 10 μM, 1 h pre-incubation, vs DMSO. The procedure:
To assess whether Cpd A affected STAT3 activity we induced STAT3 phosphorylation in Ba/F3 cells stably expressing the human IL-21 receptor (kindly provided by Dr. Max Warncke, Novartis). Cells were pre-incubated for 1 h with 10 μM of Cpd A or with 1 μM of the pan-JAK inhibitor CP690550. To induce STAT3 activity, the cells were stimulated for 1.5 h with recombinant human IL-21 (3 nM), followed by two washing steps using buffer containing PBS/0.5% BSA. The cells were fixed with 2% paraformaldehyde for 15 min at room temperature, washed and resuspended in ice-cold 90% methanol solution and stored overnight at −20°C. The samples were washed and stained for 1 h with an Alexa 647-labeled anti-phospho (pY705)-STAT3 antibody (BD biosciences). After two washes the cells were analyzed using a LSR Fortessa (BD Bioscience) and analyzed using FlowJo software (Tree Star).
On the technique in general: A flow cytometer gives signals particle by particle.

With `Cc1ccc(C(=O)Nc2cn3ccnc3c(CN3CCN(c4noc(C(C)(C)C)n4)[C@@H](C)C3)c2C)cn1` [Cpd A, (S)-N-(8-((4-(5-(tert-butyl)-1,2,4-oxadiazol-3-yl)-3-methylpiperazin-1-yl)methyl)-7-methylimidazo[1,2-a]pyridin-6-yl)-6-methylnicotinamide], the IC50 (usually the concentration that inhibits the measured activity by half) in experiment [1] worked out at 64 nM; in experiment [3] (luciferase, 24 h with compound) it was 95 nM. The FoxP3 expression entry in experiment [2] is on record as “did not result in altered FoxP3 expression”. The “inhibition of GAL4 promoter activity” value in experiment [3] is “complete inhibition”. For the same compound, the “IL-21-induced STAT3 phosphorylation (pY705)” value in experiment [4] is listed as “did not affect”.
